US7335632B2, “Beta-secretase inhibitors and methods of use thereof” (CoMentis, Inc., priority 2001, dated 2008)

Tests used:
memapsin 2 = memapsin 2 (Homo sapiens, UniProt P56817); test: Inhibition of memapsin 2 beta-secretase activity toward fluorogenic substrate FS-2; assay type: biochemical; conditions: pH 4, 37° C., 20 minutes pre-incubation, substrate FS-2, tight-binding model; read-out: M2 Ki
Procedure: Potency of compounds were determined by measurement of their inhibition of memapsin 2 activity toward a fluorescent substrate. […] Briefly, assays were performed at pH 4, 37° C., by pre-incubation of memapsin 2 enzyme with compound for 20 minutes. Activity measure was initiated by addition of a fluorogenic substrate FS-2 (Bachem Americas, Torrance, Calif.). Fluorescent signal increase over time was measured as a rate of hydrolysis of the peptide substrate.

memapsin 1 = biological target: T1, memapsin 1 (Homo sapiens, UniProt Q9Y5Z0); test: Inhibition of memapsin 1 beta-secretase activity (substrate peptide […], MALDI-TOF); assay type: biochemical; conditions: pH 4.1, 37 degrees C., substrate NH3-ELDLAVEFWHDR-CO2, MALDI-TOF; read-out: M1 Ki
T1 sequence (Q9Y5Z0 63-518): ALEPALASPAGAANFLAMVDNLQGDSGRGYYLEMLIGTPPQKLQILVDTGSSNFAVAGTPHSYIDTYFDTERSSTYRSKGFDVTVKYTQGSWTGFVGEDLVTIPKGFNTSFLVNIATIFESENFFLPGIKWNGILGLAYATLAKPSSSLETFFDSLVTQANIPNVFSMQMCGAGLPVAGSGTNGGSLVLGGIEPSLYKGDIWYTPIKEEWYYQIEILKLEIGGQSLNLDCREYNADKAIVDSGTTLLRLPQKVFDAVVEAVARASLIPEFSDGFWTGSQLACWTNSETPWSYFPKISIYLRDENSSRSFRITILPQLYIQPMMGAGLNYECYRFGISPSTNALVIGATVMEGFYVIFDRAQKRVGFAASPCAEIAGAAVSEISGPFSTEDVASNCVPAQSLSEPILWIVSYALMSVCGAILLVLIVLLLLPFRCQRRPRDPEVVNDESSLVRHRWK

Cathepsin D = Cathepsin D (Homo sapiens, UniProt P07339); test: Inhibition of cathepsin D activity (substrate peptide […], MALDI-TOF); assay type: biochemical; conditions: pH 4.1, 37 degrees C., substrate NH3-[…]-CO2, MALDI-TOF; read-out: Cath D Ki
Aβ production = test: Cellular Aβ IC50 determination (Aβ40 sandwich ELISA); assay type: cell-based; conditions: Cricetulus griseus, Chinese hamster ovary cells over-expressing human APP695 with London and Swedish mutations, 24 h
Procedure: The potency of compounds against memapsin 2 activity was determined in a cellular assay of Aβ production. […] Chinese hamster ovary cells that over-express human APP695 with the London and Swedish mutations were seeded in multi-well plates at 10% confluency. Compounds were dissolved in DMSO to concentrations near 1 mM, and diluted into culture media to a final concentration near 4 μM (final 0.4% DMSO). Compounds were diluted serially and applied to cells in multi-well plates 48 h after seeding. Incubation was continued in 5% CO2 at 37 degrees C. for 24 h. Aliquots were removed and assayed for Aβ40 content using a sandwich ELISA (BioSource International). Amount of Aβ40 over the range of concentration of compounds, relative to control incubations, were fit to a 4-parameter IC50 model.

memapsin 2, sequence (P56817 46-501): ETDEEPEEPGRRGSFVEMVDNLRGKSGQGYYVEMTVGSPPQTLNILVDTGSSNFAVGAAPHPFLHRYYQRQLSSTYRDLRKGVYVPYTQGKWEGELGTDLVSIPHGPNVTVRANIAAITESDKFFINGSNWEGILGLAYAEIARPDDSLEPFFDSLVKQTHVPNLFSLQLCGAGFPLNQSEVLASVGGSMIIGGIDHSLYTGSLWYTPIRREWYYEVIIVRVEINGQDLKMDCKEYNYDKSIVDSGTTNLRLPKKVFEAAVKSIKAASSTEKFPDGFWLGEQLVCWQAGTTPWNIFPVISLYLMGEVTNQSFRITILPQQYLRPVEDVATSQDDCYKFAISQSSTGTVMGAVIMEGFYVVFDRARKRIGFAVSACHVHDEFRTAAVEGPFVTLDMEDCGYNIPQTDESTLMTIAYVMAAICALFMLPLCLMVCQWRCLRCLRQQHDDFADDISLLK
Cathepsin D, sequence (P07339 65-412, species assumed): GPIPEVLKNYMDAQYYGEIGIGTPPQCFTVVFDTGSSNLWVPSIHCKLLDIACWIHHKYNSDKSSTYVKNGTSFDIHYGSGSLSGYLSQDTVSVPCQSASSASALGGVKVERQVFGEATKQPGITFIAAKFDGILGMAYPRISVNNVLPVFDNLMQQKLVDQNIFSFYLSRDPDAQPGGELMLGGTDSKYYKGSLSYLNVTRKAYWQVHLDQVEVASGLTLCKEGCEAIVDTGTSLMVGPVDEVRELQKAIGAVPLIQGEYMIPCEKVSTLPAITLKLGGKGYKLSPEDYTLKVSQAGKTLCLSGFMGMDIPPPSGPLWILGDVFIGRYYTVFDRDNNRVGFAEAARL

Row | Structure (SMILES) | Ki (memapsin 2) [nM] | Ki (memapsin 1) [nM] | Ki (Cathepsin D) [nM] | IC50 (Aβ production) [nM]
1 | COCS(=O)(=O)C[C@H](NC(=O)OCc1nc(C)cs1)C(=O)N[C@H](CC(C)C)[C@@H](O)C[C@@H](C)C(=O)N[C@@H](C(=O)NCC(C)C)C1CCCCC1 [Structure 35] | < 100 | 100 to 1000 | 100 to 1000 | > 100000
2 | COCSC[C@H](NC(=O)OCc1nc(C)cs1)C(=O)N[C@H](CC(C)C)[C@@H](O)C[C@@H](C)C(=O)N[C@@H](C(=O)NCC(C)C)C(C)C [Structure 36] | < 100 | < 100 | < 100 | < 6000
3 | Cc1csc(CC(C)C(=O)N[C@@H](CS(C)(=O)=O)C(=O)N[C@H](CC(C)C)[C@@H](O)C[C@@H](C)C(=O)N[C@@H](C(=O)NCC(C)C)C(C)C)n1 (stereo partly shown) [Structure 37] | < 100 | 100 to 1000 | 100 to 1000 | > 100000
4 | CSC[C@H](NC(=O)CCc1nc(C)cs1)C(=O)N[C@H](CC(C)C)[C@@H](O)C[C@@H](C)C(=O)N[C@@H](C(=O)NCC(C)C)C(C)C [Structure 39] | < 100 | 100 to 1000 | < 100 | > 100000
5 | Cc1csc(CCC(=O)N[C@@H](CS(C)(=O)=O)C(=O)N[C@H](CC(C)C)[C@@H](O)C[C@@H](C)C(=O)N[C@@H](C(=O)NCC(C)C)C(C)C)n1 [Structure 40] | < 100 | 100 to 1000 | 100 to 1000 | > 100000
6 | CSC[C@H](NC(=O)OCc1nc(C)cs1)C(=O)N[C@H](CC(C)C)[C@@H](O)C[C@@H](C)C(=O)N[C@H](CC(C)C)C(=O)NC(C)C [Structure 43] | < 100 | 100 to 1000 | < 100 | 6000 to 100000
7 | Cc1csc(COC(=O)N[C@@H](CS(C)(=O)=O)C(=O)N[C@H](CC(C)C)[C@@H](O)C[C@@H](C)C(=O)N[C@H](CC(C)C)C(=O)NC(C)C)n1 [Structure 46] | < 100 | 100 to 1000 | 100 to 1000 | < 6000
8 | Cc1csc(COC(=O)N[C@@H](CSCC(C)C)C(=O)N[C@H](CC(C)C)[C@@H](O)C[C@@H](C)C(=O)N[C@@H](C(=O)NCC(C)C)C(C)C)n1 [Structure 47] | < 100 | 100 to 1000 | < 100 | < 6000
9 | Cc1nc(COC(=O)N[C@@H](CS(C)(=O)=O)C(=O)N[C@H](CC(C)C)[C@@H](O)C[C@@H](C)C(=O)N[C@@H](C(=O)NCc2ccncc2)C(C)C)c(C)o1 [Structure 48] | < 100 | 100 to 1000 | 100 to 1000 | < 6000
10 | Cc1csc(COC(=O)N[C@@H](CS(=O)(=O)CC(C)C)C(=O)N[C@H](CC(C)C)[C@@H](O)C[C@@H](C)C(=O)N[C@@H](C(=O)NCC(C)C)C(C)C)n1 [Structure 49] | < 100 | < 100 | 100 to 1000 | > 100000
11 | CSC[C@H](NC(=O)OCc1nc(C)oc1C)C(=O)N[C@H](Cc1ccccc1)[C@@H](O)C[C@@H](C)C(=O)N[C@@H](C(=O)NCC(C)C)C(C)C [Structure 50] | 100 to 1000 | < 100 | < 100 | 6000 to 100000
12 | CSC[C@H](NC(=O)OCc1nc(C)sc1C)C(=O)N[C@H](CC(C)C)[C@@H](O)C[C@@H](C)C(=O)N[C@@H](C(=O)NCC(C)C)C(C)C [Structure 53] | < 100 | < 100 | < 100 | < 6000
13 | Cc1nc(COC(=O)N[C@@H](CS(C)(=O)=O)C(=O)N[C@H](CC(C)C)[C@@H](O)C[C@@H](C)C(=O)N[C@@H](C(=O)NCC(C)C)C(C)C)c(C)s1 [Structure 54] | < 100 | < 100 | 100 to 1000 | < 6000
14 | Cc1csc(COC(=O)N[C@@H](CS(C)(=O)=O)C(=O)N[C@H](Cc2ccccc2)[C@@H](O)C[C@@H](C)C(=O)N[C@@H](C(=O)NCC(C)C)C(C)C)n1 [Structure 55] | < 100 | < 100 | < 100 | 6000 to 100000
15 | Cc1csc(COC(=O)N[C@@H](CSC2CCCC2)C(=O)N[C@H](CC(C)C)[C@@H](O)C[C@@H](C)C(=O)N[C@@H](C(=O)NCC(C)C)C(C)C)n1 [Structure 56] | < 100 | 100 to 1000 | < 100 | > 100000
16 | Cc1nc(COC(=O)N[C@@H](CS(C)(=O)=O)C(=O)N[C@H](CC(C)C)[C@@H](O)C[C@@H](C)C(=O)N[C@@H](C(=O)NN(C)C)C(C)C)c(C)o1 [Structure 57] | < 100 | 100 to 1000 | 100 to 1000 | < 6000
17 | Cc1csc(COC(=O)N[C@@H](CS(=O)(=O)C2CCCC2)C(=O)N[C@H](CC(C)C)[C@@H](O)C[C@@H](C)C(=O)N[C@@H](C(=O)NCC(C)C)C(C)C)n1 [Structure 58] | < 100 | 100 to 1000 | 100 to 1000 | < 6000
18 | Cc1nc(COC(=O)N[C@@H](CS(=O)(=O)C(C)C)C(=O)N[C@H](CC(C)C)[C@@H](O)C[C@@H](C)C(=O)N[C@@H](C(=O)NCC(C)C)C(C)C)c(C)o1 [Structure 59] | < 100 | 100 to 1000 | 100 to 1000 | 6000 to 100000
19 | Cc1nc(COC(=O)N[C@@H](CSC(C)C)C(=O)N[C@H](CC(C)C)[C@@H](O)C[C@@H](C)C(=O)N[C@@H](C(=O)NCC(C)C)C(C)C)c(C)o1 [Structure 60] | < 100 | 100 to 1000 | < 100 | < 6000
20 | CSC[C@H](NC(=O)[C@@H](C)Cc1nc(C)cs1)C(=O)N[C@H](CC(C)C)[C@@H](O)C[C@@H](C)C(=O)N[C@@H](C(=O)NCC(C)C)C(C)C [Structure 64] | 100 to 1000 | 100 to 1000 | < 100 | < 6000
21 | CCC(C)SC[C@H](NC(=O)OCc1nc(C)cs1)C(=O)N[C@H](CC(C)C)[C@@H](O)C[C@@H](C)C(=O)N[C@@H](C(=O)NCC(C)C)C(C)C (stereo partly shown) [Structure 66] | < 100 | 100 to 1000 | < 100 | < 6000
22 | CCC(C)S(=O)(=O)C[C@H](NC(=O)OCc1nc(C)cs1)C(=O)N[C@H](CC(C)C)[C@@H](O)C[C@@H](C)C(=O)N[C@@H](C(=O)NCC(C)C)C(C)C (stereo partly shown) [Structure 67] | < 100 | 100 to 1000 | 100 to 1000 | > 100000
23 | Cc1csc(COC(=O)N[C@@H](CS(C)(=O)=O)C(=O)N[C@H](CC(C)C)[C@@H](O)C[C@@H](C)C(=O)N[C@@H](C(=O)NCC(C)C)c2ccccc2)n1 [Structure 68] | < 100 | 100 to 1000 | 100 to 1000 | 6000 to 100000
24 | CCc1nc(COC(=O)N[C@@H](CS(C)(=O)=O)C(=O)N[C@H](CC(C)C)[C@@H](O)C[C@@H](C)C(=O)N[C@@H](C(=O)NCC(C)C)C(C)C)c(C)s1 [Structure 71] | < 100 | 100 to 1000 | 100 to 1000 | > 100000
25 | CCC(CC)SC[C@H](NC(=O)OCc1nc(C)cs1)C(=O)N[C@H](CC(C)C)[C@@H](O)C[C@@H](C)C(=O)N[C@@H](C(=O)NCC(C)C)C(C)C [Structure 72] | < 100 | 100 to 1000 | < 100 | < 6000
